Among the data in PubChem BioAssay (NCI) are TGI values, retold here.

Some test systems named below: MOLT-4 leukemia; K-562 leukemia; ACHN renal; A549 NSCLC; PC-3 prostate; OVCAR-8 ovarian; T-47D breast; NCI-H23 lung; NCI-H522 lung; RPMI-8226 leukemia; MCF7 breast; HOP-92 NSCLC; M14 melanoma; HT29 colon; LOX IMVI melanoma; SR leukemia; MDA-MB-231 breast; OVCAR-5 ovarian; DU-145 prostate.
Experiment in all cases: NCI-60 cell line screen, 48 h

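In this assay, cells in 96-well plates receive the compound at five concentrations for 48 hours. Endpoints are linearly interpolated between the surrounding concentrations. The concentration for full growth arrest is given as TGI.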

Take `COc1ccc2c(c1)-c1c(c3cc(OC)ccc3n1CCCN(C)C)CC2`: the TGI in the assay with MOLT-4 leukemia stood at 30.9 µM; in the assay on K-562 leukemia it was 13.2 µM; in the assay on ACHN renal it was 35.9 µM; with A549 NSCLC, 50.6 µM; in the assay on PC-3 prostate it was 25.3 µM; in the assay on OVCAR-8 ovarian it was 30.7 µM. The TGI in the assay with T-47D breast came to 24.8 µM; in the assay on NCI-H23 lung, 37 µM; in the assay on NCI-H522 lung, 25.7 µM; with RPMI-8226 leukemia it was 26 µM; in the assay on MCF7 breast it was 26.5 µM; in the assay with HOP-92 NSCLC, 33.8 µM. Moreover, the TGI in the assay on M14 melanoma came out at 4.8 µM; in the assay on HT29 colon, 13.9 µM; with LOX IMVI melanoma it was 20.9 µM; in the assay on SR leukemia it was 22.1 µM; in the assay with MDA-MB-231 breast, 30.5 µM; in the assay with OVCAR-5 ovarian, 28.4 µM. This compound gave a TGI in the assay with DU-145 prostate of 33.4 µM.

Regarding `COC(=O)c1ccccc1CC1Cc2cc3c(cc2C1=O)CCC3` (stereo not drawn), the TGI in the assay on MOLT-4 leukemia is 33.9 µM; with K-562 leukemia it was 44.5 µM; in the assay with ACHN renal, more than 100 µM; with A549 NSCLC it was 72.8 µM; in the assay with PC-3 prostate, more than 100 µM; with OVCAR-8 ovarian, more than 80.8 µM. The TGI in the assay on T-47D breast was 69.9 µM; with NCI-H23 lung it was 75.1 µM; in the assay with NCI-H522 lung, 27.1 µM; with RPMI-8226 leukemia, 54.5 µM; in the assay with MCF7 breast, 65.3 µM; with HOP-92 NSCLC, 42.4 µM. Besides, the TGI is 44.5 µM in the assay on M14 melanoma; 41.4 µM with HT29 colon; 31.1 µM in the assay on LOX IMVI melanoma; more than 69 µM in the assay on SR leukemia; 80.2 µM in the assay with MDA-MB-231 breast; more than 90.8 µM in the assay with OVCAR-5 ovarian. This compound had a TGI in the assay on DU-145 prostate of more than 100 µM.

Turning to `Cc1cc(C)nc(NS(=O)(=O)c2ccc(Nc3c4ccccc4nc4c(C(=O)NC(CO)(CO)CO)cccc34)cc2)n1`, the TGI in the assay with MOLT-4 leukemia is more than 100 µM; in the assay with K-562 leukemia, more than 100 µM; with ACHN renal, more than 100 µM; in the assay with A549 NSCLC it was 73.2 µM; with PC-3 prostate, more than 100 µM; in the assay on OVCAR-8 ovarian, more than 100 µM. In addition, the TGI was more than 100 µM in the assay on T-47D breast; more than 100 µM in the assay on NCI-H23 lung; 31.7 µM with NCI-H522 lung; 91.8 µM in the assay with RPMI-8226 leukemia; more than 100 µM with MCF7 breast; more than 100 µM in the assay on HOP-92 NSCLC. Further, the TGI with M14 melanoma was more than 100 µM; in the assay on HT29 colon, 70.8 µM; in the assay with LOX IMVI melanoma, 42.2 µM; in the assay on SR leukemia, 67.2 µM; with MDA-MB-231 breast it was more than 100 µM; with OVCAR-5 ovarian, 88.4 µM. In the assay with DU-145 prostate, this compound displayed a TGI of more than 100 µM.

`Cc1cc2nc(C=C(C(F)(F)F)C(F)(F)F)sc2cc1C`: the TGI is more than 100 µM in the assay with MOLT-4 leukemia; more than 100 µM in the assay on K-562 leukemia; 7.48 µM in the assay with ACHN renal; 26.7 µM in the assay on A549 NSCLC; 4.98 µM in the assay on PC-3 prostate; 4.4 µM in the assay on OVCAR-8 ovarian. The TGI turned out to be 1.78 µM in the assay with T-47D breast; 3.5 µM with NCI-H23 lung; 1.01 µM in the assay with NCI-H522 lung; 1.41 µM in the assay with RPMI-8226 leukemia; 12.5 µM in the assay on MCF7 breast; 16.2 µM in the assay on HOP-92 NSCLC. For the same compound, the TGI in the assay on M14 melanoma stood at 3.31 µM; in the assay with HT29 colon it was 9.93 µM; in the assay with LOX IMVI melanoma, 4.99 µM; in the assay on SR leukemia, 13.2 µM; in the assay with MDA-MB-231 breast, 23.9 µM; with OVCAR-5 ovarian, 8.66 µM. The same compound yielded a TGI in the assay with DU-145 prostate of 10.2 µM.

`CC(=O)NC(Cc1ccccc1)NC(=O)O` (stereo not drawn): the TGI in the assay on MOLT-4 leukemia, with K-562 leukemia, in the assay on ACHN renal, in the assay with A549 NSCLC, in the assay on PC-3 prostate and in the assay with OVCAR-8 ovarian was more than 100 µM each time. Further, the TGI with T-47D breast, in the assay on NCI-H23 lung, in the assay with NCI-H522 lung, with RPMI-8226 leukemia, with MCF7 breast and with HOP-92 NSCLC was more than 100 µM throughout. Moreover, the TGI in the assay with M14 melanoma, with HT29 colon, in the assay on LOX IMVI melanoma, in the assay on SR leukemia, in the assay with MDA-MB-231 breast and with OVCAR-5 ovarian was more than 100 µM throughout. In the assay with DU-145 prostate, the TGI was more than 100 µM.

In the case of `CCOC(=O)C(NC(C)=O)(Nc1ccc(S(N)(=O)=O)cc1)C(F)(F)F` (stereo not drawn), the TGI with MOLT-4 leukemia, in the assay on K-562 leukemia, with ACHN renal, in the assay on A549 NSCLC, in the assay with PC-3 prostate and with OVCAR-8 ovarian was more than 100 µM throughout. The TGI in the assay on T-47D breast, in the assay with NCI-H23 lung, with NCI-H522 lung, with RPMI-8226 leukemia, in the assay with MCF7 breast and in the assay on HOP-92 NSCLC was more than 100 µM throughout. Besides, the TGI in the assay with M14 melanoma, in the assay on HT29 colon, in the assay on LOX IMVI melanoma, with SR leukemia, in the assay with MDA-MB-231 breast and in the assay with OVCAR-5 ovarian was more than 100 µM in each case. This compound registered a TGI in the assay on DU-145 prostate of more than 100 µM.

On to `N/N=C(\c1nc2ccc([N+](=O)[O-])cc2[nH]c1=O)C(O)c1ccc(Cl)c(Cl)c1` (stereo not drawn), for which the TGI in the assay with MOLT-4 leukemia, with K-562 leukemia, in the assay on ACHN renal, in the assay on A549 NSCLC, in the assay on PC-3 prostate and with OVCAR-8 ovarian was more than 100 µM in each case. In addition, the TGI in the assay with T-47D breast, in the assay with NCI-H23 lung, with NCI-H522 lung, in the assay with RPMI-8226 leukemia, in the assay with MCF7 breast and in the assay on HOP-92 NSCLC was more than 100 µM throughout. In addition, the TGI in the assay on M14 melanoma, in the assay with HT29 colon, in the assay on LOX IMVI melanoma, with SR leukemia, in the assay with MDA-MB-231 breast and in the assay with OVCAR-5 ovarian was more than 100 µM each time. In addition, the TGI with DU-145 prostate was more than 100 µM.
